Values joined by “and” are separate entries in the source; they are usually repeats but may differ in a detail not shown here. Equal entries are not always repeated.
Legend:
[1] = test system: Reh; test: In vitro cytotoxicity of mAb216 in combination with chemotherapeutic agents; assay type: cell-based, human; conditions: 48 h; for % change in live cells: versus control
Description: (§1) Three cell lines which have been derived from ALL blasts of different genotype and phenotype, Nalm 6, REH, and SUPB15, were incubated with mAb 216 alone or in combination with vincristine (VCR), for 48 hours at 37° C.
(§2) In vitro cytotoxicity of mAb216 in combination with single chemotherapeutic agents was tested. Three cell lines which have been derived from ALL blasts of different genotype and phenotype, Nalm 6, REH, and SUPB 15, were incubated with mAb 216 alone or in combination with vincristine (VCR), daunorubicin (DNR), or L-asparaginase (ASPR).

[2] = test system: Nalm 6; test: as above; assay type: cell-based, human; conditions: for Live cells ×10^5 / % change in live cells: 48 h; for % change in live cells: versus control
Description: as §1, §2

[3] = test system: SUP B15; test: as above; assay type: cell-based; conditions: 48 h; for % change in live cells: versus control
Description: as §1, §2

[4] = test system: Nalm-6 cells; test: Cell viability assay using PI staining and forward scatter; assay type: cell-based, human; conditions: for effect of caspase inhibitor on cell viability: 10 μM for 2 hr at 37° C. before treatment with mAb 216; for viability: cytochalasin 5 μgs/ml or jasplakinolide 3 μgs/ml for 2 hr, then control antibodies
Description: The integrity of the plasma membrane was assessed by the ability of cells to exclude propidium iodide (PI, Sigma, St. Louis, Mo.). The level of PI incorporation was quantitated by flow cytometry on FACScan (Becton-Dickinson, San Jose Calif.) interfaced with VersatermPro and FlowJo software at Stanford's FACS facility. PI-negative cells with normal size as measured by forward scatter signals were considered live cells.
Briefly, cells were treated as specified in each experiment and resuspended in PBS with 3% FCS and 10 μgs/ml of PI. In experiments where toxicity was evaluated in Ca-free medium, cells were resuspended in appropriate media with or without calcium to which 10 μgs/ml PI was added. Since previous studies have shown that mAb 216-mediated toxicity is remarkably pronounced at lower temperatures (Bhat, N. M., et al. (1996) Clin. Exp. Immunol. 105:183), precautions were taken to keep all media and cells at 37° C. and the centrifuge at room temperature.
Cytochalasin was obtained from Sigma and jasplakinolide was obtained from Molecular Probes (Eugene, Oreg.). Caspase inhibitors, Ac-IETD-CHO and Ac-DEVD-CHO were obtained from PharMingen (San Diego, Calif.). Nalm-6 cells (1×10^6 cells/ml) were treated with jasplakinolide (3 μgs/ml), cytochalasin (5 μgs/ml), or caspase inhibitors (10 μM) for 2 hr at 37° C. before treatment with mAb 216. Control samples with equivalent amounts of DMSO were set in parallel. Cells were then exposed to 25 μg of mAb 216 or control Ab and analyzed by flow cytometry.
Since exocytosis of lysosomes is known to be a calcium dependent phenomenon (Miyake, K., and P. L. McNeil (1995) J. Cell Biol. 131:1737; Bi, G. Q., et al. (1995) J. Cell Biol. 131:1747), membrane wounding by mAb 216 nd repair of the wound was tested in calcium free and normal calcium conditions. The cell viability of Nalm-6 cells when treated with two VH4-34 encoded mAbs, mAb 216 at 50, 25 and 12.5 ng/ml concentrations, and Y2K at 50 ng/ml, was tested in the presence of media with and without calcium.
Brefeldin-A was obtained from Sigma. Nalm-6 cells (1×10^6 cells/ml) were treated with BFA (25 μg/ml) for 2 hr at 37° C. before treatment with mAb 216. Control samples with equivalent amounts of DMSO were set in parallel. Cells were then exposed to 25 μg of mAb 216 or control Ab and analyzed by flow cytometry.

In the case of CC[C@]1(O)C[C@H]2CN(CCc3c([nH]c4ccccc34)[C@@](C(=O)OC)(c3cc4c(cc3OC)N(C=O)[C@H]3[C@@](O)(C(=O)OC)[C@H](OC(C)=O)[C@]5(CC)C=CCN6CC[C@]43[C@@H]65)C2)C1 [VCR, vincristine], the “Live cells ×10^5” value ([1]; VCR 2 ng/ml) is reported as 4.2 ×10^5 and 7.7 ×10^5, the “Live cells ×10^5” value ([2]; VCR 0.2 ng/ml) is reported as 13 ×10^5 and the “% change in live cells” value ([2]; VCR 0.2 ng/ml) is reported as 0%. The “Live cells ×10^5” value ([2]; VCR 2 ng/ml) was 5 ×10^5, the “% change in live cells” value ([2]; VCR 2 ng/ml) was 54% and the “cell death due to vincristine alone” value ([2]; vincristine 0.2 ng/ml, 48 hours at 37° C.) was “no cell death occurred”. For the same molecule, the “Live cells ×10^5” value ([3]; VCR 2 ng/ml) was 2.8 ×10^5 and the “% change in live cells” value ([3]; VCR 2 ng/ml) was 45%.

For C[C@H]1CCC/C=C/[C@@H]2C[C@H](O)C[C@H]2[C@H](O)/C=C/C(=O)O1 [BFA, Brefeldin A], the “viability of cells treated with control antibodies” value ([4]; BFA 25 μg/ml for 2 hr) was “no effect”.

With Ac-DEVD-CHO the “effect of caspase inhibitor on cell viability” value [4] was “did not alter cell viability”.

C/C1=C\[C@H](C)C[C@H](C)OC(=O)C[C@H](c2ccc(O)cc2)NC(=O)[C@@H](Cc2c(Br)[nH]c3ccccc23)N(C)C(=O)[C@H](C)NC(=O)[C@@H](C)C1 [jasplakinolide] was tested, and the viability [4] was “did not show a decrease in viability”.

Ac-IETD-aldehyde was tested, and the “effect of caspase inhibitor on cell viability” value [4] was “did not alter cell viability”.

In the case of COc1cccc2c1C(=O)c1c(O)c3c(c(O)c1C2=O)C[C@@](O)(C(C)=O)C[C@@H]3O[C@H]1C[C@H](N)[C@H](O)[C@H](C)O1 [DNR, daunorubicin], the “Live cells ×10^5” value ([1]; DNR 5 ng/ml) is reported as 4.5 ×10^5, the “% change in live cells” value ([1]; DNR 5 ng/ml) is reported as 65% and the “Live cells ×10^5” value ([2]; DNR 5 ng/ml) is reported as 4.3 ×10^5 and 4.5 ×10^5. The “% change in live cells” value ([2]; DNR 5 ng/ml) was 47% and 59%, the “Live cells ×10^5” value ([3]; DNR 4 ng/ml) was 0.44 ×10^5 and the “% change in live cells” value ([3]; DNR 4 ng/ml) was 91%.

With cytochalasin the viability [4] was “did not show a decrease in viability”.

B1: L-asparaginase (protein, UniProt P00805 23-348, looked up)
L-asparaginase 2: LPNITILATGGTIAGGGDSATKSNYTVGKVGVENLVNAVPQLKDIANVKGEQVVNIGSQDMNDNVWLTLAKKINTDCDKTDGFVITHGTDTMEETAYFLDLTVKCDKPVVMVGAMRPSTSMSADGPFNLYNAVVTAADKASANRGVLVVMNDTVLDGRDVTKTNTTDVATFKSVNYGPLGYIHNGKIDYQRTPARKHTSDTPFDVSKLNELPKVGIVYNYANASDLPAKALVDAGYDGIVSAGVGNGNLYKSVFDTLATAAKTGTAVVRSSRVPTGATTQDAEVDDAKYGFVASGTLNPQKARVLLQLALTQTKDPQQIQQIFNQY
For B1, the “Live cells ×10^5” value ([1]; ASPR 0.8 U/ml) was 6.2 ×10^5, the “% change in live cells” value ([1]; ASPR 0.8 U/ml) was 35% and the “Live cells ×10^5” value ([2]; ASPR 0.8 U/ml) was 9.2 ×10^5. For the same molecule, the “% change in live cells” value ([2]; ASPR 0.8 U/ml) was 23%, the “Live cells ×10^5” value ([3]; ASPR 0.8 U/ml) was 3 ×10^5 and the “% change in live cells” value ([3]; ASPR 0.8 U/ml) was 47%.
